Data: US7812042B2, “Pharmaceutical compositions and therapeutic applications for the use of a novel vitamin B12 derivative, N-acetyl-L-cysteinylcobalamin” (priority 2006, dated 2010)
Where “and” joins values, the source holds several entries; their conditions need not be identical. Equal values may be shown once.

Experiments:
SK-HEP-1 cells [1] = assay: Protection of endothelial cells from H2O2-induced cell death (MTS assay); type: cell-based, Human
Description: The effect of increasing concentrations of NACCbl and GSCbl to protect endothelial cells from the effect of H2O2 was assessed. […] Cell viability was determined by MTS® assay. […] Cell viability was determined by MTS® assay. […] Cell viability was determined by MTS® assay.

U937 (monocytes) = assay: Survival of U937 cells at variable concentration of Hcy; type: cell-based; details: NACCbl 30 μM, NAC 75 μM, CNCbl 15 μM, folate 30 μM; especially at higher homocysteine concentrations
Description: (§1) Additional cell studies were conducted using Jurkat (T-cells) and U937 (monocyte) cell lines. These experiments confirmed that other cell types are killed by homocysteine, although these cell lines are not as sensitive as the SK-HEP-1 cell line discussed in the experiments above and are thus more resistant to homocysteine. Cells were exposed to NACCbl 30 μM, NAC 75 μM, CNCbl 15 μM, and folate 30 μM. […] In these Figures, the monocytes are N=6 and concentrations are as follows: NACCbl 30 μM, NAC 75 μM, CNCbl 15 μM, Folate 30 μM

SK-HEP-1 cells [2] = assay: Effect of high concentrations of NACCbl and GSCbl on SK-HEP-1 cells (MTS assay); type: cell-based, Human; parameters: cell viability (MTS), raw readings (FIG. 13): reference not given here; details: 24 hours; for cell viability (MTS), raw readings (FIG. 13): 3 replicates
Jurkat (T-cells) = assay: Survival of Jurkat cells at variable concentration of Hcy; type: cell-based; details: NACCbl 30 μM, NAC 75 μM, CNCbl 15 μM, folate 30 μM; especially at higher homocysteine concentrations
Description: as §1

Hsp32 = Hsp32 gene expression in SK-HEP-1 cells (RT-PCR, densitometry); type: cell-based, Human; details: homocysteine 30 μM, folate 30 μM (2 hr), Sn(IX) protoporphyrin 25 μM, quercitin 15 μM
Description: Cells were plated into 6-, 12-, or 24-well cell culture clusters, at 2×10^3, 2×10^5, or 1×10^5 cells per well and incubated until 90% confluent. Treatments were applied as above.
Following incubation, cells were subjected to mRNA extraction followed by cDNA synthesis for each sample under test. Polymerase chain reaction cDNA templates were prepared for simplex PCR protocol. PCR products were then visualized using a UV Transilluminator and images captured using a Kodak ID gel imaging system. Densitometry and statistical analysis was then performed on each gene expression band image using PSP® v 10.0 running under Windows XP®.
mRNA extraction was performed using the Quickprep micro mRNA Purification Kit. Following incubation of cells post-treatment, the media was removed from the cells, adherent cells were re-suspended in 0.4 ml extraction buffer and 0.8 ml elution buffer at 65° C. was added.
A reaction mixture was prepared in individual microcentrifuge tubes containing 2 cDNA synthesis beads, 32 μl of the mRNA solution and 1 μl of pd(N)6. This mixture was incubated at 37° C. in a water bath for 60 minutes. After incubation, 27 μl of RNase-free DEPC treated water was added to each tube to make a total volume 60 μl. cDNA samples were prepared in duplicate. Sample 1 was used immediately in RT-PCR protocol. Sample 2 was prepared for qPCR protocol by the addition of 150 μl of 95% ice-cold ethanol and stored at −20° C.
Microcentrifuge tubes from puReTaq™Ready-To-Go™ PCR Beads containing one PCR bead were labeled for each sample required. Added to the PCR bead were 17 μl of RNase-free DEPC treated water, 1 μl sense primer, 1 μl anti-sense primer and 5 μl of the cDNA solution. RT-PCR conditions were as follows: Hsp70 and β-actin, pre-treatment step, 94° C. for 1 minute, followed by denaturing at 92° C. for 1 minute, annealing at 60° C. for 1 minute and extension at 72° C. for 1 minute. Total cycles, 30, post-treatment was then carried out at 72° C. for 10 minutes. For Hsp32, pre-treatment step, 95° C. for 2 minutes, followed by denaturing at 94° C. for 30 seconds, annealing at 58° C. for 1 minute and extension at 72° C. for 1 minute. Total cycles 45, post treatment was then carried out at 72° C. for 10 minutes. Following RT-PCR, samples were stored at −20° C.
Amplification products were separated on a 1.8% agarose gel (m/v) in TAE buffer. The size of the PCR products was determined by comparison to DNA fragments of a well-defined size; therefore, 5 μl of the DNA Ladder was carefully pipetted into the first well of the gel. Successive 10 μl of each PCR sample was then pipetted into subsequent wells on the agarose gel. The gel was connected to the Power Pack and run at 100V for 30 minutes.
Gels were visualised on a UV Transilluminator. Photographs were stored using a Kodak Digital camera system fitted with a UV filter set connected to a PC. Images were then transferred to the Kodak ID gel imaging system. Densitometry was performed on each gene expression band using PSP™ v10 running under Windows XP®.
Experiments were conducted using Hsp32 and Hsp 70 gene expression as the basis for study. […] (all treatments for 2 hours).

SK-HEP-1 cells [3] = assay: Protection of endothelial cells from homocysteine-induced cell death (MTS assay, absorbance at 490 nm; includes comparison of NACCbl, NAC, cyanocobalamin+NAC, free thiols, other cobalamins, folate); type: cell-based, Human; details: for Absorbance at 490 nm, Mean (n = 6): NACCbl 30 μM, NAC 75 μM
Description: The effect of a constant concentration of NACCbl and GSCbl to protect cells against variable concentrations of homocysteine was assessed. […] Cell viability was determined by MTS® assay. Data shown in FIG. 4 are representative of means ±SE of 6 independent samples. FIG. 4 illustrates that NACCbl (▪) and GSCbl (▴) protect endothelial cells from the effect of homocysteine. […] Cell viability was determined by MTS® assay. […] There was a decrease in protection as homocysteine concentration increased, but there was still ˜60% survival at 50 μM homocysteine.
The data was normalized (log 2 and log 10) as shown in FIGS. 16 and 17 and Tables 16 and 17, respectively, below.

[4] = 2 hours pre-incubation, then 25 μM H2O2 24 hours

`CC(=O)NC(C[S-])C(=O)O.CC1=C2N=C(C=C3N=C(C(C)=C4[N-]C(C(CC(N)=O)C4(C)CCC(=O)NCC(C)OP(=O)([O-])OC4C(CO)OC(n5cnc6cc(C)c(C)cc65)C4O)C4(C)N=C1C(CCC(N)=O)C4(C)CC(N)=O)C(CCC(N)=O)C3(C)C)C(CCC(N)=O)C2(C)CC(N)=O.[Co+3]` [NACCbl, N-acetyl-L-cysteinylcobalamin] was tested, and the “protection by NACCbl compared with GSCbl” value (SK-HEP-1 cells [1]; 25 μM H2O2 24 hours) was “no difference”, the “concentration required to achieve >80% survival” value (SK-HEP-1 cells [1]; [4]) was 100 µM and the “pre-incubation concentration that protected cells from H2O2-induced cell death” value (SK-HEP-1 cells [1]; [4]) was no less than 2.0 µM. The “protection of U937 cells from death by homocysteine, comparison” value (U937 (monocytes)) was “more effective at protecting these cells from death than NAC, CN Cbl or folate”, the survival (SK-HEP-1 cells [2]; 10 mM) was “over 60%” and the “cell viability (MTS), raw readings (FIG. 13)” value (“cell viability (MTS)” below) (SK-HEP-1 cells [2]; compound conc. 0.61 (μM scale)) was 2.572 and 2.498 and 2.473. For the same molecule, the “cell viability (MTS)” value (SK-HEP-1 cells [2]; compound conc. 1.22 (μM scale)) was 2.546 and 2.524 and 2.538, the “cell viability (MTS)” value (SK-HEP-1 cells [2]; compound conc. 2.441 (μM scale)) was 2.592 and 2.536 and 2.499 and the “cell viability (MTS)” value (SK-HEP-1 cells [2]; compound conc. 4.882 (μM scale)) was 2.532 and 2.463 and 2.457. The “cell viability (MTS)” value (SK-HEP-1 cells [2]; compound conc. 9.765 (μM scale)) was 2.505 and 2.474 and 2.514, the “cell viability (MTS)” value (SK-HEP-1 cells [2]; compound conc. 19.531 (μM scale)) was 2.485 and 2.466 and 2.502 and the “cell viability (MTS)” value (SK-HEP-1 cells [2]; compound conc. 39.062 (μM scale)) was 2.503 and 2.474 and 2.453. The “cell viability (MTS)” value (SK-HEP-1 cells [2]; compound conc. 78.125 (μM scale)) was 2.521 and 2.488 and 2.475, the “cell viability (MTS)” value (SK-HEP-1 cells [2]; compound conc. 156.25 (μM scale)) was 2.484 and 2.42 and 2.492 and the “cell viability (MTS)” value (SK-HEP-1 cells [2]; compound conc. 312.5 (μM scale)) was 2.409 and 2.301 and 2.437. For the same molecule, the “cell viability (MTS)” value (SK-HEP-1 cells [2]; compound conc. 625 (μM scale)) was 2.358 and 2.242 and 2.347, the “cell viability (MTS)” value (SK-HEP-1 cells [2]; compound conc. 1250 (μM scale)) was 2.2 and 2.055 and 2.3 and the “cell viability (MTS)” value (SK-HEP-1 cells [2]; compound conc. 2500 (μM scale)) was 1.989 and 1.891 and 2.085. For the same molecule, the “cell viability (MTS)” value (SK-HEP-1 cells [2]; compound conc. 5000 (μM scale)) was 2.081 and 2.003 and 2.004, the “cell viability (MTS)” value (SK-HEP-1 cells [2]; compound conc. 10000 (= 10 mM)) was 1.908 and 1.82 and 1.732 and the “protection of Jurkat cells from death by homocysteine, comparison” value (Jurkat (T-cells)) was “more effective at protecting these cells from death than NAC, CN Cbl or folate”. For the same molecule, the “effect on Hsp32 gene expression” value (Hsp32) was “induce Hsp32”, the survival (SK-HEP-1 cells [3]; 30 μM cobalamin pre-incubation two hours, then 50 μM homocysteine two hours) was roughly 60% and the “pre-incubation concentration that protected cells from homocysteine-induced cell death” value (SK-HEP-1 cells [3]; 2 hours pre-incubation, then 30 μM homocysteine 24 hours) was no less than 2.0 µM. The “Absorbance at 490 nm, Mean (n = 6)” value (SK-HEP-1 cells [3]; Conc. Hcy 0.000) was 2.761, the “Absorbance at 490 nm, Mean (n = 6)” value (SK-HEP-1 cells [3]; Conc. Hcy 1.780 (μM)) was 2.673 and the “Absorbance at 490 nm, Mean (n = 6)” value (SK-HEP-1 cells [3]; Conc. Hcy 3.125 (μM)) was 2.404. For the same molecule, the “Absorbance at 490 nm, Mean (n = 6)” value (SK-HEP-1 cells [3]; Conc. Hcy 6.250 (μM)) was 2.273 and the “Absorbance at 490 nm, Mean (n = 6)” value (SK-HEP-1 cells [3]; Conc. Hcy 12.500 (μM)) was 2.142.
